Patent US20230000813A1, “COMPOUND FOR THE TREATMENT OF BOVINE OR SWINE RESPIRATORY DISEASE” (Intervet Inc., priority 2016, published 2023)
Converted amounts (≈) assume the structure as drawn.

What was measured:
Assay in all cases: MIC, broth-microdilution (CLSI VET01-A4)
Format in all cases: cell-based
[1] = system: Mannheimia haemolytica MH 6357 (M7/2, reference strain, cattle infection strain); details: Mannheimia haemolytica MH 6357; for MIC: read-out: MIC MH 6357
Procedure: (§1) The Minimum inhibitory concentrations (MIC) of compounds according to the invention for a number of veterinary bacterial pathogens were determined by the broth-microdilution method according to CLSI document VET01-A4.
(§2) Microdilution trays containing a doubling dilution series of the test compound were used for the tests. The MIC results were interpreted according to the CLSI documents VET01-S3. The lowest concentration of compound at which no visible growth (i.e. no turbidity) detected by the unaided eye was recorded as the MIC.
(§3) The Minimum inhibitory concentrations (MIC) of compounds according to the invention were determined by the broth-microdilution method according to CLSI document VET01-A4.
(§4) Microdilution trays containing a doubling dilution series of the test compound were used for the tests.
(§5) The MIC results were interpreted according to the CLSI documents VET01-S3. The lowest concentration of compound at which no visible growth (i.e. no turbidity) detected by the unaided eye was recorded as the MIC.

[2] = system: Mannheimia haemolytica MH 12587 (1071, BRD field isolate, macrolide-resistance: erm+, E+); details: Mannheimia haemolytica MH 12587, macrolide-resistant
Procedure: as §1, §2, §3, §4, §5

[3] = system: Pasteurella multocida PM 6391 (ATCC 43137, reference strain); details: Pasteurella multocida PM 6391
Procedure: as §1, §2, §3, §4, §5

[4] = system: Pasteurella multocida PM 12080 (IV102277-0093, BRD field isolate); details: Pasteurella multocida PM 12080
Procedure: as §1, §2, §3, §4, §5

[5] = system: Mannheimia haemolytica MH 6374 (ATCC 33396, reference strain); details: Mannheimia haemolytica MH 6374; for MIC: read-out: MIC MH 6374
Procedure: as §1, §2, §3, §4, §5

[6] = system: Mannheimia haemolytica MH 10720 (154, BRD field isolate); details: Mannheimia haemolytica MH 10720
Procedure: as §1, §2, §3, §4, §5

[7] = system: Pasteurella multocida PM 6267 (P 2225 (L386), reference strain, mouse infection strain); details: Pasteurella multocida PM 6267
Procedure: as §1, §2, §3, §4, §5

[8] = system: Mannheimia haemolytica MH 13093 (XB0472-6014.1, BRD field isolate)
Procedure: as §1, §2

SMILES: C#CCNCc1ccc(C#Cc2ccc(C(=O)N[C@H](C(=O)NO)[C@@H](C)O)cc2)cc1 [C. 469]
- MIC [1]: 0.2 µM (≈ 0.0811 µg/mL)
- MIC MH 12587 [2]: 0.4 µM (≈ 0.162 µg/mL)
- MIC PM 6391 [3]: <=0.1 μM
- MIC PM 12080 [4]: <=0.1 μM
- MIC MH 6374 [5]: <=0.1 μM
- MIC MH 10720 [6]: <=0.1 μM
- MIC PM 6267 [7]: <=0.1 μM
- MIC [8]: 0.4 µM (≈ 0.162 µg/mL)

SMILES: CC(O)C(NC(=O)c1ccc(C#CC#CC=CCNC2CC2)cc1)C(=O)NO (centres unmarked) [Compound 444]
- MIC [1]: 0.4 µM (≈ 0.153 µg/mL)
- MIC MH 12587 [2]: 1.6 µM (≈ 0.61 µg/mL)
- MIC PM 6391 [3]: <=0.1 μM
- MIC PM 12080 [4]: <=0.1 μM
- MIC [5]: 0.8 µM (≈ 0.305 µg/mL)
- MIC MH 10720 [6]: <=0.1 μM
- MIC PM 6267 [7]: <=0.1 μM
- MIC [8]: 1.6 µM (≈ 0.61 µg/mL)

SMILES: CC(O)C(NC(=O)c1ccc(C#CC#CC=CCN2CCC(c3ccccc3)CC2)cc1)C(=O)NO (centres unmarked) [Compound 448]
- MIC [1]: 0.8 µM (≈ 0.388 µg/mL)
- MIC MH 12587 [2]: 1.6 µM (≈ 0.777 µg/mL)
- MIC PM 6391 [3]: <=0.1 μM
- MIC PM 12080 [4]: <=0.1 μM
- MIC [5]: 0.4 µM (≈ 0.194 µg/mL)
- MIC MH 10720 [6]: <=0.1 μM
- MIC PM 6267 [7]: <=0.1 μM
- MIC [8]: 1.6 µM (≈ 0.777 µg/mL)

SMILES: CC(O)C(NC(=O)c1ccc(C#CC#CC=CCN(C)Cc2ccccc2)cc1)C(=O)NO (centres unmarked) [Compound 452]
- MIC [1]: 0.2 µM (≈ 0.0891 µg/mL)
- MIC MH 12587 [2]: 0.8 µM (≈ 0.356 µg/mL)
- MIC PM 6391 [3]: <=0.1 μM
- MIC PM 12080 [4]: <=0.1 μM
- MIC [5]: 0.4 µM (≈ 0.178 µg/mL)
- MIC PM 6267 [7]: <=0.1 μM
- MIC [8]: 0.8 µM (≈ 0.356 µg/mL)

SMILES: CC(O)C(NC(=O)c1ccc(C#CC#CC=CCNCc2ccc(Cl)cc2)cc1)C(=O)NO (centres unmarked) [Compound 453]
- MIC [1]: 1.6 µM (≈ 0.745 µg/mL)
- MIC MH 12587 [2]: 1.6 µM (≈ 0.745 µg/mL)
- MIC PM 6391 [3]: <=0.1 μM
- MIC PM 12080 [4]: <=0.1 μM
- MIC [5]: 0.4 µM (≈ 0.186 µg/mL)
- MIC MH 10720 [6]: <=0.1 μM
- MIC PM 6267 [7]: <=0.1 μM
- MIC [8]: 1.6 µM (≈ 0.745 µg/mL)

SMILES: CC(O)C(NC(=O)c1ccc(C#CC#CC=CCNCc2cccnc2)cc1)C(=O)NO (centres unmarked) [Compound 460]
- MIC [1]: 0.8 µM (≈ 0.346 µg/mL)
- MIC MH 12587 [2]: 1.6 µM (≈ 0.692 µg/mL)
- MIC PM 6391 [3]: <=0.1 μM
- MIC PM 12080 [4]: <=0.1 μM
- MIC [5]: 0.8 µM (≈ 0.346 µg/mL)
- MIC PM 6267 [7]: <=0.1 μM
- MIC [8]: 1.6 µM (≈ 0.692 µg/mL)

SMILES: CC(O)C(NC(=O)c1ccc(C#CC#CC=CCNCc2ccnc(Cl)c2)cc1)C(=O)NO (centres unmarked) [Compound 461]
- MIC [1]: 0.4 µM (≈ 0.187 µg/mL)
- MIC MH 12587 [2]: 1.6 µM (≈ 0.747 µg/mL)
- MIC PM 6391 [3]: <=0.1 μM
- MIC PM 12080 [4]: <=0.1 μM
- MIC [5]: 0.4 µM (≈ 0.187 µg/mL)
- MIC MH 10720 [6]: <=0.1 μM
- MIC PM 6267 [7]: <=0.1 μM
- MIC [8]: 1.6 µM (≈ 0.747 µg/mL)

SMILES: CC(O)C(NC(=O)c1ccc(C#CC#CC=CCNCc2cccs2)cc1)C(=O)NO (centres unmarked) [Compound 464]
- MIC [1]: 0.4 µM (≈ 0.175 µg/mL)
- MIC MH 12587 [2]: 0.8 µM (≈ 0.35 µg/mL)
- MIC PM 6391 [3]: <=0.1 μM
- MIC PM 12080 [4]: <=0.1 μM
- MIC [5]: 0.2 µM (≈ 0.0875 µg/mL)
- MIC MH 10720 [6]: <=0.1 μM
- MIC PM 6267 [7]: <=0.1 μM
- MIC [8]: 0.8 µM (≈ 0.35 µg/mL)

SMILES: C[C@@H](O)[C@H](NC(=O)c1ccc(C#Cc2ccc(CN3CC=CC3)cc2)cc1)C(=O)NO [Compound 468]
- MIC MH 6357 [1]: <=0.1 μM
- MIC MH 12587 [2]: 0.4 µM (≈ 0.168 µg/mL)
- MIC PM 6391 [3]: <=0.1 μM
- MIC PM 12080 [4]: <=0.1 μM
- MIC MH 6374 [5]: <=0.1 μM
- MIC MH 10720 [6]: <=0.1 μM
- MIC PM 6267 [7]: <=0.1 μM
- MIC [8]: 0.4 µM (≈ 0.168 µg/mL)

SMILES: CSCCNCc1ccc(C#Cc2ccc(C(=O)N[C@H](C(=O)NO)[C@@H](C)O)cc2)cc1 [Compound 472]
- MIC [1]: 0.4 µM (≈ 0.177 µg/mL)
- MIC MH 12587 [2]: 1.6 µM (≈ 0.706 µg/mL)
- MIC PM 6391 [3]: <=0.1 μM
- MIC PM 12080 [4]: <=0.1 μM
- MIC [5]: 0.8 µM (≈ 0.353 µg/mL)
- MIC MH 10720 [6]: <=0.1 μM
- MIC PM 6267 [7]: <=0.1 μM
- MIC [8]: 1.6 µM (≈ 0.706 µg/mL)

SMILES: Cc1cnc(CNCc2ccc(C#Cc3ccc(C(=O)N[C@H](C(=O)NO)[C@@H](C)O)cc3)cc2)o1 [Compound 474]
- MIC [1]: 0.2 µM (≈ 0.0925 µg/mL)
- MIC MH 12587 [2]: 0.8 µM (≈ 0.37 µg/mL)
- MIC PM 6391 [3]: <=0.1 μM
- MIC PM 12080 [4]: <=0.1 μM
- MIC [5]: 0.4 µM (≈ 0.185 µg/mL)
- MIC MH 10720 [6]: <=0.1 μM
- MIC PM 6267 [7]: <=0.1 μM
- MIC [8]: 0.8 µM (≈ 0.37 µg/mL)
